This note sets out measurements from ChEMBL document CHEMBL1201862, “PubChem BioAssay data set” (2004).

Some test systems named below: ACHN; CCRF-CEM; HOP-62; KM12; Malme-3M; NCI-H23; NCI-H460; OVCAR-5; OVCAR-8; RPMI-8226; RXF 393; SK-MEL-28; SK-MEL-2; SN12C; SNB-75; SW-620; TK-10; UACC-62; UO-31; MOLT-4.
Experiment in all cases: growth of human tumour cells (NCI), 48 h

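How tested: cells in 96-well plates exposed to compound for 48 hours at five concentrations. The concentration for 50% growth inhibition is given as GI50.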 Activity calls are given as the source filed them. No stated cut-off is given here; in the data, active = GI50 up to about 1.1 µM and inactive = higher. Where only a bound is given, the exact number is not on record here.

`Cn1c(=O)c2[nH]c(CCC(=O)O)nc2n(C)c1=O`: the GI50 with ACHN, in the experiment on CCRF-CEM, with HOP-62, in the experiment on KM12, in the experiment with Malme-3M and in the experiment with NCI-H23 was > 100 µM (inactive) in each case. Besides, the GI50 with NCI-H460, in the experiment with OVCAR-5, in the experiment on OVCAR-8, in the experiment with RPMI-8226, in the experiment with RXF 393 and in the experiment with SK-MEL-28 was > 100 µM (inactive) each time. Also, the GI50 with SK-MEL-2, in the experiment with SN12C, in the experiment on SNB-75, with SW-620, with TK-10 and in the experiment on UACC-62 was > 100 µM (inactive) in each case. In the experiment on UO-31, the GI50 was > 100 µM (inactive).

On to `c1cc(CNCCN2CCNCC2)ccn1`, for which the GI50 in the experiment with ACHN, in the experiment with HOP-62, in the experiment with KM12, in the experiment with MOLT-4, in the experiment with Malme-3M and in the experiment with NCI-H23 was > 100 µM (inactive) in each case. Further, the GI50 in the experiment with NCI-H460, in the experiment with OVCAR-5, with OVCAR-8, in the experiment on RPMI-8226, with RXF 393 and in the experiment on SK-MEL-28 was > 100 µM (inactive) throughout. The GI50 is > 100 µM (inactive) in the experiment with SK-MEL-2; > 100 µM (inactive) in the experiment on SN12C; > 100 µM (inactive) with SNB-75; > 100 µM (inactive) with SW-620; 20.3 µM (inactive) with TK-10; > 100 µM (inactive) with UACC-62. The GI50 with UO-31 is > 100 µM (inactive).

For the molecule `c1cncc(-c2cc(-c3cc(-c4cccnc4)[nH]n3)n[nH]2)c1`, the GI50 in the experiment with ACHN, in the experiment with HOP-62, in the experiment on KM12, in the experiment with MOLT-4, with Malme-3M and with NCI-H23 was > 100 µM (inactive) throughout. The GI50 in the experiment with NCI-H460, in the experiment with OVCAR-5, in the experiment with OVCAR-8, with RPMI-8226, in the experiment with RXF 393 and in the experiment on SK-MEL-28 was > 100 µM (inactive) throughout. Also, the GI50 in the experiment on SK-MEL-2, with SN12C, with SNB-75, with SW-620, with TK-10 and in the experiment on UACC-62 was > 100 µM (inactive) throughout. In addition, the GI50 in the experiment with UO-31 was > 100 µM (inactive).

`C/C(=N/NC(=S)N(Cc1ccccn1)Cc1ccccn1)c1cnccn1`: the GI50 was 0.306 µM (active) with ACHN; 0.0551 µM (active) in the experiment on CCRF-CEM; 0.594 µM (active) in the experiment with HOP-62; 0.427 µM (active) with KM12; 0.0948 µM (active) in the experiment on MOLT-4; 0.0472 µM (active) in the experiment on Malme-3M. Besides, the GI50 is 0.731 µM (active) in the experiment with NCI-H23; 0.601 µM (active) in the experiment on NCI-H460; 1.26 µM (inactive) in the experiment on OVCAR-5; 0.0303 µM (active) with OVCAR-8; 0.373 µM (active) with RPMI-8226; 2.52 µM (inactive) in the experiment with RXF 393. Moreover, the GI50 in the experiment with SK-MEL-28 was 0.721 µM (active); in the experiment with SK-MEL-2 it was 3.41 µM (inactive); in the experiment with SN12C it was 0.208 µM (active); in the experiment with SNB-75 it was 3.43 µM (inactive); with SW-620, 0.288 µM (active); in the experiment with TK-10, 0.071 µM (active). For the same molecule, the GI50 with UACC-62 is 0.537 µM (active).

Take `N/N=C(\Nc1ccccc1)SCc1ccccc1`: the GI50 in the experiment on ACHN, in the experiment with CCRF-CEM, in the experiment on HOP-62, in the experiment on KM12, in the experiment with MOLT-4 and in the experiment with Malme-3M was > 100 µM (inactive) throughout. Besides, the GI50 in the experiment with NCI-H23, with NCI-H460, in the experiment with OVCAR-5, in the experiment with OVCAR-8, with RPMI-8226 and in the experiment on RXF 393 was > 100 µM (inactive) each time. The GI50 is > 100 µM (inactive) with SK-MEL-28; > 100 µM (inactive) with SK-MEL-2; > 100 µM (inactive) in the experiment on SN12C; 41.7 µM (inactive) in the experiment on SNB-75; > 100 µM (inactive) in the experiment with SW-620; > 100 µM (inactive) in the experiment with UACC-62. The GI50 in the experiment with UO-31 is > 100 µM (inactive).

For `COc1cccc2c1C(=O)c1c(O)c3c(c(O)c1C2=O)C[C@@](O)(C(C)=O)C[C@@H]3OC1CC(N(Cc2ccccc2)Cc2ccccc2)C(O)C(C)O1` (some centres undefined), the GI50 in the experiment with ACHN was 0.51 µM (active); with CCRF-CEM it was 2.43 µM (inactive); in the experiment on HOP-62, 18.8 µM (inactive); in the experiment with KM12, 13.1 µM (inactive); in the experiment with Malme-3M, 13.3 µM (inactive); in the experiment on NCI-H23 it was 18.6 µM (inactive). Moreover, the GI50 in the experiment on NCI-H460 is 0.653 µM (active); in the experiment with OVCAR-5, 20.5 µM (inactive); with OVCAR-8, 4.89 µM (inactive); in the experiment on RPMI-8226, 4.62 µM (inactive); with RXF 393 it was 30.6 µM (inactive); with SK-MEL-28, 32.8 µM (inactive). In addition, the GI50 was 16.8 µM (inactive) in the experiment with SK-MEL-2; 8.09 µM (inactive) with SN12C; 30.1 µM (inactive) with SNB-75; 4.69 µM (inactive) in the experiment with SW-620; 13.7 µM (inactive) in the experiment with TK-10; 16.6 µM (inactive) in the experiment on UACC-62. Besides, the GI50 in the experiment on UO-31 was 15 µM (inactive).

`Cc1cc(-c2nc3ccc(F)cc3s2)ccc1NC(=O)[C@H](C)N`: the GI50 is 9.33 µM (inactive) in the experiment with ACHN; 1.64 µM (inactive) in the experiment on CCRF-CEM; 8.22 µM (inactive) in the experiment on HOP-62; 3.97 µM (inactive) in the experiment with KM12; 2 µM (inactive) in the experiment with MOLT-4; 21.3 µM (inactive) in the experiment on Malme-3M. Also, the GI50 in the experiment with NCI-H23 is 12.9 µM (inactive); in the experiment with NCI-H460, 2.14 µM (inactive); in the experiment on OVCAR-5 it was 4.56 µM (inactive); in the experiment with OVCAR-8 it was 11.6 µM (inactive); in the experiment on RPMI-8226 it was 3.11 µM (inactive); in the experiment on RXF 393, 7.91 µM (inactive). In addition, the GI50 in the experiment on SK-MEL-28 was 15.4 µM (inactive); in the experiment on SK-MEL-2, 12.4 µM (inactive); with SN12C, 14.8 µM (inactive); in the experiment on SNB-75, 11.8 µM (inactive); in the experiment on SW-620, 3.83 µM (inactive); in the experiment on UACC-62, 1.88 µM (inactive). For the same molecule, the GI50 with UO-31 was 4.14 µM (inactive).

On to `O=c1cccccc1NCCNc1cccccc1=O`, for which the GI50 is > 100 µM (inactive) in the experiment with ACHN; > 100 µM (inactive) in the experiment with CCRF-CEM; > 100 µM (inactive) in the experiment on HOP-62; > 100 µM (inactive) with KM12; > 100 µM (inactive) with MOLT-4; 13.9 µM (inactive) with Malme-3M. For the same molecule, the GI50 was > 100 µM (inactive) with NCI-H23; > 100 µM (inactive) with NCI-H460; > 100 µM (inactive) with OVCAR-5; > 100 µM (inactive) in the experiment with OVCAR-8; > 100 µM (inactive) in the experiment with RPMI-8226; 68.2 µM (inactive) in the experiment on RXF 393. Further, the GI50 with SK-MEL-2 is > 100 µM (inactive); in the experiment with SN12C, 13.6 µM (inactive); with SNB-75, > 10 µM (inactive); with SW-620, > 100 µM (inactive); in the experiment with UACC-62, > 100 µM (inactive); in the experiment on UO-31, > 100 µM (inactive).

Turning to `C[C@H]1CC[C@@H]2[C@@H](C)[C@H]3[C@H](C[C@H]4[C@@H]5CC=C6C[C@@H](O)CC[C@]6(C)[C@H]5C[C@H](O)[C@]34C)N2C1`, the GI50 in the experiment with ACHN, in the experiment on HOP-62, with KM12, in the experiment with MOLT-4, with Malme-3M and in the experiment on NCI-H23 was > 100 µM (inactive) each time. The GI50 with NCI-H460, with OVCAR-5, in the experiment with OVCAR-8, in the experiment on RPMI-8226, in the experiment on RXF 393 and in the experiment with SK-MEL-28 was > 100 µM (inactive) throughout. The GI50 in the experiment with SK-MEL-2, in the experiment on SN12C, in the experiment with SNB-75, in the experiment on SW-620, with TK-10 and in the experiment on UACC-62 was > 100 µM (inactive) throughout. The GI50 in the experiment with UO-31 is > 100 µM (inactive).

`O=C(O)C1C2CCC(O2)C1C(=O)N1CCCCC1` (centres undefined): the GI50 in the experiment with ACHN is 4.54 µM (inactive); in the experiment on HOP-62, 12.7 µM (inactive); in the experiment with KM12 it was 16.2 µM (inactive); in the experiment on MOLT-4, 5.06 µM (inactive); in the experiment on Malme-3M, 10.6 µM (inactive); in the experiment with NCI-H23, 11.7 µM (inactive). Moreover, the GI50 in the experiment on NCI-H460 was 12.8 µM (inactive); with OVCAR-5, 26.5 µM (inactive); in the experiment on OVCAR-8 it was 4.61 µM (inactive); in the experiment with RPMI-8226, 3.26 µM (inactive); in the experiment on RXF 393, 2.2 µM (inactive); in the experiment on SK-MEL-28 it was 5.83 µM (inactive). For the same molecule, the GI50 with SK-MEL-2 was 8.17 µM (inactive); with SN12C, 2.57 µM (inactive); with SNB-75, 4.51 µM (inactive); in the experiment with SW-620 it was 3.43 µM (inactive); with TK-10 it was 2.99 µM (inactive); in the experiment on UACC-62 it was 5.26 µM (inactive). Moreover, in the experiment with UO-31, the GI50 was 19.9 µM (inactive).
